Measurements from patent US3987175A, “Derivatives of phenoxy isobutyric acid having hypolipemizing and hypocholesterolemizing action” (Pierre Fabre S.A., priority 1974, dated 1976).
Structures can show the parent of a compound that is named as a salt.

Experiments:
[1] = Acute test: cholesterol and triglycerides 4 hours after intraperitoneal administration; assay type: in vivo; settings: rats
Description: The products to be studied were administered intraperitoneally to groups of identical rats; the doses were calculated on a basis of clofibrate in order to make the tests fully comparative. After a period of 4 hours, blood was removed by heart puncture and cholesterol and triglycerides determined.

[2] = Test covering 4 days of treatment by oral administration, normal diet (cholesterol, Kunkel's phenol test); assay type: in vivo; settings: rats, fifth day
Excerpt: 2. Test covering 4 days of treatment by oral administration. In a lot of 30 rats subjected to a normal diet, the blood samplings were effected and the determinations of cholesterol and lipoproteins (Kunkel's phenol test) were made on the fifth day.

[3] = Hypercholesterolemia induced by the administration of Triton WR 1339; assay type: in vivo; settings: male rats; for Cholesterol % variation / Kunkel phenol % variation: Triton 200 mg/kg IV, 18 hours
Description: 3. […] Immediately after the injection, the products to be tested were administered IP and new samples of blood taken 18 hours later (at the maximum of the hypocholesterolemia produced by the Triton). |P being the biochemical parameter under consideration | p Triton + product p Triton + product | - | + 18 hours at the start |1 - × 100 | p Triton p Triton | - | + 18 hours at the start

[4] = Acute toxicity, LD50 (method of Miller and Tainter, mortality observed for 4 days); settings: mouse, in vivo, mice
Excerpt: The above-described chemical compounds were submitted to toxicity tests. The acute toxicity of certain compounds determined by the 50% lethal dose is entered in the following Table:
The LD50 was studied in accordance with the method of Miller and Tainter, the mortality of mice being observed for 4 days.

[5] = Solubility characteristics; assay type: physicochemical
[6] = IP, clofibrate 200 mg/kg, 4 hours
[7] = clofibrate 200 mg/kg IP, NS (not significant)
[8] = IP, nicotinic acid 140 mg/kg, 4 hours
[9] = nicotinic acid 100 mg/kg IP, HS (highly significant)
[10] = IP, F 1393 340 mg/kg, 4 hours (comparison with reference products)
[11] = acute dose study, 340 mg/kg, HS (highly significant)

SMILES: CCOC(=O)C(C)(C)Oc1ccc(Cl)cc1 [Clofibrate]
- Cholesterol % variation referred to the control [1, 6]: -17%
- Triglycerides % variation referred to the control [1, 6]: +23%
- Cholesterol % variation referred to the control ([2]; clofibrate 200 mg/kg): -34%
- Kunkel phenol test % variation referred to the control ([2]; clofibrate 200 mg/kg): -29%
- Cholesterol % variation [3, 7]: -15%
- Kunkel phenol % variation [3, 7]: -23%
- Activity in the Triton test (in words) ([3]; Triton WR 1339): inactive

SMILES: O=C(O)c1cccnc1 [Nicotinic acid, nicotinic acid]
- Cholesterol % variation referred to the control [1, 8]: -25%
- Triglycerides % variation referred to the control [1, 8]: -47%
- Cholesterol % variation referred to the control ([2]; nicotinic acid 100 mg/kg): -22%
- Cholesterol % variation [3, 9]: -67%
- Kunkel phenol % variation [3, 9]: -75%

SMILES: CC(C)(Oc1ccc(Cl)cc1)C(=O)OCCNC(=O)c1ccc[n+]([O-])c1 [F 1416, N-oxide of N-nicotinoyl, O-(parachloro phenoxy) isobutanoyl ethanol amine]
- LD50 at 96 h ([4]; po, by mouth): 2400 mg/kg
- LD50 at 96 h ([4]; ip): ≥ 1000 mg/kg
- Solubility in ethanol [5]: 3%
- Solubility in propylene alcohol ([5]; propylene alcohol): 1%
- Solubility in water (in words) ([5]; water): Insoluble

SMILES: CC(C)(Oc1ccc(Cl)cc1)C(=O)OCCNC(=O)c1cccnc1 [F 1393, Hydrochloride of N-nicotinoyl, O-(p-chloro phenoxy) isobutanoyl ethanol amine]
- LD50 at 96 h ([4]; po, by mouth): 3100 mg/kg
- LD50 at 96 h ([4]; ip): 560 mg/kg
- Cholesterol % variation referred to the control [1, 10]: -32%
- Triglycerides % variation referred to the control [1, 10]: -43%
- Triglycerides % variation referred to the control ([1]; acute dose study, 50 mg/kg, HS (highly significant)): -26%
- Cholesterol % variation referred to the control ([1]; acute dose study, 50 mg/kg, NS (not significant)): -10%
- Cholesterol % variation referred to the control ([1]; acute dose study, 100 mg/kg): -0%
- Triglycerides % variation referred to the control ([1]; acute dose study, 100 mg/kg, HS (highly significant)): -29%
- Cholesterol % variation referred to the control ([1]; acute dose study, 200 mg/kg, HS (highly significant)): -22%
- Triglycerides % variation referred to the control ([1]; acute dose study, 200 mg/kg, S): -19%
- Cholesterol % variation referred to the control [1, 11]: -35%
- Triglycerides % variation referred to the control [1, 11]: -43%
- Cholesterol % variation referred to the control ([2]; F 1393 340 mg/kg): -44%
- Kunkel phenol test % variation referred to the control ([2]; F 1393 340 mg/kg): -52%
- Cholesterol % variation ([3]; F 1393 340 mg/kg IP, HS (highly significant)): -68%
- Kunkel phenol % variation ([3]; F 1393 340 mg/kg IP, S): -89%
- Solubility in N-methyl pyrrolidone ([5]; N-methyl pyrrolidone): 16%
- Solubility in ethanol [5]: 3.5%
- Solubility in propylene glycol ([5]; propylene glycol): 5%
- solubility ([5]; water): 120 mg/mL
